Tests used:
Experiment in all cases: relative viability (nuclei count vs DMSO), 5 days (fraction); higher = more cells survive
[1] = compound: O=C(Nc1cc(C(F)(F)F)cc(C(F)(F)F)c1)c1cc(Cl)ccc1O [IMD-0354] + Nc1ncn([C@H]2C[C@H](O)[C@@H](CO)O2)c(=O)n1 [Decitabine] (partner 2 µM)
Summary of the method: (§1)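 Relative viability divides the nuclei count in treated wells by that in vehicle wells. Lung cancer cell lines were seeded in 1536-well plates, dosed by pin tool the next day, and fixed and stained after 5 days in one step with final 0.05% Triton X-100, 1% formaldehyde and 1 ug/ml Hoechst. Dosing was a single drug or a fixed anchor-drug dose plus five library-drug doses (not always all listed) in √10 steps, and values are medians of duplicate plates imaged at 4×.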

[2] = compound: Cc1cnc(CNC(=O)c2c(=O)c3ccc(N4CCCN(C)CC4)nc3n3c2sc2ccccc23)cn1 [CX-5461] + CC(=O)c1c(C)c2cnc(Nc3ccc(N4CCNCC4)cn3)nc2n(C2CCCC2)c1=O [Palbociclib] (partner 0.5 µM)
Summary of the method: as §1

[3] = compound: O=C(Nc1cc(C(F)(F)F)cc(C(F)(F)F)c1)c1cc(Cl)ccc1O [IMD-0354] + O=C(CCCCCCC(=O)Nc1ccccc1)NO [Vorinostat] (partner 1 µM)
Summary of the method: as §1

[4] = compound: O=C(Nc1cc(C(F)(F)F)cc(C(F)(F)F)c1)c1cc(Cl)ccc1O [IMD-0354] + N=C(N)NC(=N)NCCc1ccccc1 [Phenformin] (partner 250 µM)
Summary of the method: as §1

## UMC-11
[1]; first compound 0.04 µM
  relative viability: 0.64
[1]; first compound 0.1265 µM
  relative viability: 0.646
[1]; first compound 0.4 µM
  relative viability: 0.522
[1]; first compound 1.265 µM
  relative viability: 0.174
[1]; first compound 4 µM
  relative viability: 0.176
[2]; first compound 0.01 µM
  relative viability: 0.36
[2]; first compound 0.03162 µM
  relative viability: 0.319
[2]; first compound 0.1 µM
  relative viability: 0.306
[2]; first compound 0.3162 µM
  relative viability: 0.294
[2]; first compound 1 µM
  relative viability: 0.241
[3]; first compound 0.04 µM
  relative viability: 0.39
[3]; first compound 0.1265 µM
  relative viability: 0.407
[3]; first compound 0.4 µM
  relative viability: 0.278
[3]; first compound 1.265 µM
  relative viability: 0.189
[3]; first compound 4 µM
  relative viability: 0.239
[4]; first compound 0.04 µM
  relative viability: 0.321
[4]; first compound 0.1265 µM
  relative viability: 0.229
[4]; first compound 0.4 µM
  relative viability: 0.202
[4]; first compound 1.265 µM
  relative viability: 0.167
[4]; first compound 4 µM
  relative viability: 0.181

Reference: the supplement of paper PMC10307832
